Assay results reported in PMC11040670, “Mechanistic and Kinetic Insights into Cellular Uptake of Biomimetic Dinitrosyl Iron Complexes and Intracellular Delivery of NO for Activation of Cytoprotective HO-1” (JACS Au, 2024).

Assays:
BSA = biological target: T1, BSA (Bos taurus, UniProt P02769); test: Formation and degradation of albumin-bound DNIC in cell culturing media with FBS (EPR); format: in vitro ADME, bovine
T1 construct: 2 mL of αMEM with the presence of 20% FBS; from tissue; host or cells: fetal bovine serum (FBS) in αMEM / MEM / HSFM culture media
Protocol: 50 μM of DNIC–COOH was prepared via addition of 1 μL of 100 mM stock solution of DNIC–COOH in DMSO to 2 mL of αMEM with the presence of 20% FBS. After this solution was incubated at 37 °C for 0, 0.5, 1, 2, 3, 4, 8, and 24 h, respectively, EPR spectra of 100 μL aliquots of this solution were measured. Moreover, double integration of the EPR signal was executed to obtain the integrated EPR signal intensity under each condition, which was further utilized to characterize the time-dependent formation and degradation of BSA-bound DNIC. EPR investigations on the formation and degradation of protein-bound DNICs upon incubation of (1) 50 μM DNIC–COOMe in αMEM with the presence of 20% FBS, (2) 50 μM DNIC–COOH (or DNIC–COOMe) in MEM with the presence of 5% FBS, and (3) 50 μM DNIC–COOH (or DNIC–COOMe) in HSFM with the presence of 2% FBS were performed in a similar manner. In addition, EPR spectra for 50 μM of DNIC–COOH (or 50 μM of DNIC–COOMe) in αMEM, MEM, and HSFM, respectively, were also measured.

MSC = test: Cytoprotection of MSC against H2O2 oxidative stress (CCK-8, live/dead); format: cell-based, human; conditions: MSC pretreated 8 h (100 μM DNIC–COOH or 2.5 μM DNIC–COOMe), then 250 μM H2O2 24 h
Protocol: Cell viability study of MSC, N2a, and HCEC cells with or without the treatment of DNIC–COOH was performed using a Cell Counting Kit-8 (IMT Formosa New Materials Co., Ltd., Taiwan) according to the manufacturer’s protocol. Briefly, cells were seeded into a 96-well plate at a density of 4 × 10^3 cells/well for MSC, 1 × 10^4 cells/well for N2a, and 8 × 10^3 cells/well for HCEC, respectively, and incubated overnight. On the next day, cells were treated with DNIC–COOH at different concentrations and incubated for 24 h. The culture medium was then removed before the cells were washed with DPBS. After addition of fresh medium containing CCK-8 solution to the cells and incubation for 1–3 h, the absorbance at 450 nm was then measured on a microplate reader (SpectraMax iD3, Molecular Devices, San Jose, CA) with a reference wavelength of 650 nm. […]
To investigate the capacity of DNIC preconditioning to protect the MSC cells against elevated oxidative stress, cells were pretreated with 2.5 μM of DNIC–COOMe or 100 μM of DNIC–COOH for 8 h before being incubated with 250 μM H2O2 for another 24 h. Cell viability was evaluated by live/dead staining or CCK-8 assay. In a similar manner, DNIC-induced cytoprotective effect in HCECs was evaluated through pretreatment of 1 μM of DNIC–COOMe or 75 μM of DNIC–COOH for 24 h.

MSC/N2a/HCEC = test: Cell viability (CCK-8) of MSC/N2a/HCEC treated with DNICs; format: cell-based; conditions: 24 h; for effect on cell viability: N2a/HCEC
Protocol: Cell viability study of MSC, N2a, and HCEC cells with or without the treatment of DNIC–COOH was performed using a Cell Counting Kit-8 (IMT Formosa New Materials Co., Ltd., Taiwan) according to the manufacturer’s protocol. Briefly, cells were seeded into a 96-well plate at a density of 4 × 10^3 cells/well for MSC, 1 × 10^4 cells/well for N2a, and 8 × 10^3 cells/well for HCEC, respectively, and incubated overnight. On the next day, cells were treated with DNIC–COOH at different concentrations and incubated for 24 h. The culture medium was then removed before the cells were washed with DPBS. After addition of fresh medium containing CCK-8 solution to the cells and incubation for 1–3 h, the absorbance at 450 nm was then measured on a microplate reader (SpectraMax iD3, Molecular Devices, San Jose, CA) with a reference wavelength of 650 nm. Three independent experiments were executed, and the results were represented as mean ± SEM% (n = 3) with the untreated cells (control) as 100% viability. Cell viability studies of MSC/N2a/HCEC cells (1) with the treatment of DNIC–COOMe for 24 h, (2) with the treatment of NEM for 0.5 h, (3) with the treatment of chlorpromazine (CPZ; TCI) for 0.5 h, (4) with the treatment of methyl-β-cyclodextrin (MβCD; Thermo Fisher Scientific) for 0.5 h, (5) with the treatment of genistein (Alfa Chemistry) for 0.5 h, (6) with the sequential treatments of ODQ for 1 h and DNIC–COOH for 3 h (MSC)/10 h (N2a)/6 h (HCEC), and (7) with the cotreatment of PTIO and DNIC–COOH for 3 h (MSC)/10 h (N2a)/6 h (HCEC), respectively, were performed in a similar manner. In addition to CCK-8 assay, a live/dead staining was performed using a ViaQuant Viability/Cytotoxicity Kit (GeneCopoeia, Rockville, MD) according to the manufacturer’s instruction.

T1 sequence (P02769 25-607): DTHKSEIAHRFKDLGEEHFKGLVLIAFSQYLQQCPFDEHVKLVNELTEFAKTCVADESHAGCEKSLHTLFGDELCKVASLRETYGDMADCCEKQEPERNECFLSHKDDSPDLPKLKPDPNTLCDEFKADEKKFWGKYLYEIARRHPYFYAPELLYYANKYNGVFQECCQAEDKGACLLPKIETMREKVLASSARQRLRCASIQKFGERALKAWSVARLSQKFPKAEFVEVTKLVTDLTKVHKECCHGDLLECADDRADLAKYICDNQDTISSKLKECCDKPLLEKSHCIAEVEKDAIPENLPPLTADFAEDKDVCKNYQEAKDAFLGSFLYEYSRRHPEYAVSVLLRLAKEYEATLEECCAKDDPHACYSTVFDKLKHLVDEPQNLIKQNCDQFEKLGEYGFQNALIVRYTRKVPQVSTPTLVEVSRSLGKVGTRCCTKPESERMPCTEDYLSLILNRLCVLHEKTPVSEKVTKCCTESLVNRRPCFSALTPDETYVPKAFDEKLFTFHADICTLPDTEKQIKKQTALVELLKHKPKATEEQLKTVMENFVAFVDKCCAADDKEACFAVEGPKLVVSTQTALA

SMILES	binding to BSA yielding albumin-bound DNIC (BSA)	survival rate (MSC)	biocompatibility in comparison with DNIC–COOMe (MSC/N2a/HCEC; MSC/N2a/HCEC)	effect on cell viability (MSC/N2a/HCEC)
O=[N][Fe]1([N]=O)[SH](CCC(=O)O)[Fe]([N]=O)([N]=O)[SH]1CCC(=O)O (stereo not shown) [DNIC–COOH, [(NO)2Fe(μ-SCH2CH2COOH)2Fe(NO)2]]	slow binding	58.7%	improved biocompatibility	dose-dependent cell-proliferation effect
COC(=O)CC[SH]1[Fe]([N]=O)([N]=O)[SH](CCC(=O)OC)[Fe]1([N]=O)[N]=O (stereo not shown) [DNIC–COOMe, [(NO)2Fe(μ-SCH2CH2COOCH3)2Fe(NO)2]]	rapid binding	35.8%	–	dose-dependent cell-proliferation effect
